Reference: patent US9469615B2, “Quinoxalines and AZA-quinoxalines as CRTH2 receptor modulators” (Merck Sharp & Dohme Corp., priority 2010, dated 2016)

target: T1, hCRTH2 (Homo sapiens, UniProt Q9Y5Y4); assay: Radioligand binding assay ([3H]PGD2 competition, HEK-hCRTH2 membranes); conditions: [3H]PGD2 binding, rated A-E (Table A)
T1 construct: expressed in transfected cells; host or cells: HEK (human embryonic kidney) cells expressing hCRTH2; membrane preparation
T1 sequence (Q9Y5Y4 1-395): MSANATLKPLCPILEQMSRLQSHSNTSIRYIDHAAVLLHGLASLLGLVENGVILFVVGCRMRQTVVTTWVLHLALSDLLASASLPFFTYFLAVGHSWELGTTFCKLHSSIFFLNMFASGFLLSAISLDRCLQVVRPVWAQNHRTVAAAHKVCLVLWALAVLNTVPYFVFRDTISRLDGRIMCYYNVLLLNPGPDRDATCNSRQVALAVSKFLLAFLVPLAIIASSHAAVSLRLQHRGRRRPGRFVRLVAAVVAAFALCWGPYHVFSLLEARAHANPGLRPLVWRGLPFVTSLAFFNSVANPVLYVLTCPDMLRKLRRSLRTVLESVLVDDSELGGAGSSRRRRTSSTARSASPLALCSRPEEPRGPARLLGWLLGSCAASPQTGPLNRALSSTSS
In short: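 Membranes (8-20 μg protein) from HEK-hCRTH2 cells were incubated 60 min at room temperature with 3.0 nM [3H]PGD2 in 50 mM Tris-HCl pH 7.4, 1 mM EDTA, 2 mM MnCl2, 1% DMSO. Non-specific binding defined with 10 μM PGD2. Bound radioactivity counted after filtration.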

SMILES	Ki [nM]
O=C(O)CCCCc1nc2cc(C(=O)C3CC3)ccc2nc1-c1ccc(F)cc1 [compound 5, 5-(7-(cyclopropanecarbonyl)-3-(4-fluorophenyl)quinoxalin-2-yl)pentanoic acid]	0.1 to 2
O=C(O)CCCCc1nc2cc(C(=O)N3CCC(c4cccc(Cl)c4)C3)ccc2nc1-c1ccccc1 (centres unmarked) [15P, 5-(7-{[3-(3-chloro-phenyl)pyrrolidin-1-yl]-carbonyl}-3-phenyl-quinoxalin-2-yl) pentanoic acid]	0.1 to 2
O=C(O)CCCCc1nc2cc(C(=O)N[C@H](c3ccccc3)C(F)(F)F)ccc2nc1-c1ccc(F)cc1 [compound 137, 3-(4-fluorophenyl)-7-[[[2,2,2-2-trifluoro-1(R)-phenylethyl)amino]carbonyl]-2-quinoxalinepentanoic acid]	20.1 to 200

Continued, values first:

Ki [nM]	SMILES
2.1 to 20	C[C@@H](c1ccc(F)cc1)N(C)C(=O)c1ccc2nc(-c3ccc(F)cc3)c(CCCCC(=O)O)nc2c1 [compound 241, 3-(4-fluorophenyl)-7-[[[1(S)-(4-fluorophenyl)ethyl]methylamino]carbonyl]-2-quinoxalinepentanoic acid]
0.1 to 2	N#Cc1ccc(CNC(=O)c2ccc3nc(-c4ccc(Cl)cc4)c(CCCCC(=O)O)nc3c2)cc1 [16K, 3-(4-chlorophenyl)-7-[[[(4-cyanophenyl)methyl]amino]carbonyl]-2-quinoxalinepentanoic acid]
2.1 to 20	O=C(O)CCCCc1nc2cc(C(=O)N[C@@H](c3ccccc3)C(F)(F)F)ccc2nc1-c1ccccc1 [15F, 5-(3-phenyl-7-{[(1S)-2,2,2-trifluoro-1-phenylethyl]carbamoyl}quinoxalin-2-yl) pentanoic acid]

same assay, conditions: [3H]PGD2 competition, Table B

SMILES	Ki [nM]
C[C@H](NC(=O)c1ccc2nc(-c3ccc(F)cc3)c(CCCCC(=O)O)nc2c1)c1ccc2ccccc2c1 [compound 535, (S)-5-(3-(4-fluorophenyl)-7-((1-(naphthalen-2-yl)ethyl)carbamoyl)quinoxalin-2-yl)pentanoic acid]	2.1 to 20
Cc1ccc(N2CCN(C(=O)c3ccc4nc(-c5ccc(F)cc5)c(CCCCC(=O)O)nc4c3)CC2)cc1 [compound 369, 5-(3-(4-fluorophenyl)-7-(4-(p-tolyl)piperazine-1-carbonyl)quinoxalin-2-yl)pentanoic acid]	2.1 to 20
COc1ccc(N2CCN(C(=O)c3ccc4nc(-c5ccc(F)cc5)c(CCCCC(=O)O)nc4c3)CC2)cc1 [compound 367, 5-(3-(4-fluorophenyl)-7-(4-(4-methoxyphenyl)piperazine-1-carbonyl)quinoxalin-2-yl)pentanoic acid]	2.1 to 20

The next lines start with the values.

Ki [nM]	SMILES
2.1 to 20	O=C(O)CCCCc1nc2cc(C(=O)N3CCC4(CC3)Cc3ccccc3C(=O)N4)ccc2nc1-c1ccccc1 [compound 300, 5-(7-(1-oxo-2,4-dihydro-1H-spiro[isoquinoline-3,4′-piperidin]-1′-ylcarbonyl)-3-phenylquinoxalin-2-yl)pentanoic acid]
2.1 to 20	O=C(O)CCCCc1nc2cc(C(=O)N3CCCN(Cc4ccccc4)CC3)ccc2nc1-c1ccc(Cl)cc1 [compound 591, 5-(7-(4-benzyl-1,4-diazepane-1-carbonyl)-3-(4-chlorophenyl)quinoxalin-2-yl)pentanoic acid]
20.1 to 200	O=C(N[C@@H]1CCCc2ccccc21)c1ccc2nc(-c3ccc(F)cc3)c(CCC3CC3C(=O)O)nc2c1 (stereo partly drawn) [compound 501, 2-(2-(3-(4-fluorophenyl)-7-(((R)-1,2,3,4-tetrahydronaphthalen-1-yl)carbamoyl)quinoxalin-2-yl)ethyl)cyclopropane-carboxylic acid]
2.1 to 20	O=C(O)CCCCc1nc2cc(C(=O)N[C@H]3CCOc4ccccc43)ccc2nc1-c1ccc(F)cc1 [compound 492, (S)-5-(7-(chroman-4-ylcarbamoyl)-3-(4-fluorophenyl)quinoxalin-2-yl)pentanoic acid]
2.1 to 20	O=C(O)CCCCc1nc2cc(C(=O)NCC3(c4ccc(F)cc4)CC3)ccc2nc1-c1ccc(Cl)cc1 [compound 318, 5-(3-(4-chlorophenyl)-7-(((1-(4-fluorophenyl)cyclopropyl)methyl)carbamoyl)quinoxalin-2-yl)pentanoic acid]
